Results reported in ChEMBL document CHEMBL4028852, “Design of a Chemical Probe for the Bromodomain and Plant Homeodomain Finger-Containing (BRPF) Family of Proteins” (J Med Chem, 2017).

What was measured:
Peregrin (Homo sapiens) = biological target: T1, Peregrin (Homo sapiens) (UniProt P55201)
T1 sequence (whole entry): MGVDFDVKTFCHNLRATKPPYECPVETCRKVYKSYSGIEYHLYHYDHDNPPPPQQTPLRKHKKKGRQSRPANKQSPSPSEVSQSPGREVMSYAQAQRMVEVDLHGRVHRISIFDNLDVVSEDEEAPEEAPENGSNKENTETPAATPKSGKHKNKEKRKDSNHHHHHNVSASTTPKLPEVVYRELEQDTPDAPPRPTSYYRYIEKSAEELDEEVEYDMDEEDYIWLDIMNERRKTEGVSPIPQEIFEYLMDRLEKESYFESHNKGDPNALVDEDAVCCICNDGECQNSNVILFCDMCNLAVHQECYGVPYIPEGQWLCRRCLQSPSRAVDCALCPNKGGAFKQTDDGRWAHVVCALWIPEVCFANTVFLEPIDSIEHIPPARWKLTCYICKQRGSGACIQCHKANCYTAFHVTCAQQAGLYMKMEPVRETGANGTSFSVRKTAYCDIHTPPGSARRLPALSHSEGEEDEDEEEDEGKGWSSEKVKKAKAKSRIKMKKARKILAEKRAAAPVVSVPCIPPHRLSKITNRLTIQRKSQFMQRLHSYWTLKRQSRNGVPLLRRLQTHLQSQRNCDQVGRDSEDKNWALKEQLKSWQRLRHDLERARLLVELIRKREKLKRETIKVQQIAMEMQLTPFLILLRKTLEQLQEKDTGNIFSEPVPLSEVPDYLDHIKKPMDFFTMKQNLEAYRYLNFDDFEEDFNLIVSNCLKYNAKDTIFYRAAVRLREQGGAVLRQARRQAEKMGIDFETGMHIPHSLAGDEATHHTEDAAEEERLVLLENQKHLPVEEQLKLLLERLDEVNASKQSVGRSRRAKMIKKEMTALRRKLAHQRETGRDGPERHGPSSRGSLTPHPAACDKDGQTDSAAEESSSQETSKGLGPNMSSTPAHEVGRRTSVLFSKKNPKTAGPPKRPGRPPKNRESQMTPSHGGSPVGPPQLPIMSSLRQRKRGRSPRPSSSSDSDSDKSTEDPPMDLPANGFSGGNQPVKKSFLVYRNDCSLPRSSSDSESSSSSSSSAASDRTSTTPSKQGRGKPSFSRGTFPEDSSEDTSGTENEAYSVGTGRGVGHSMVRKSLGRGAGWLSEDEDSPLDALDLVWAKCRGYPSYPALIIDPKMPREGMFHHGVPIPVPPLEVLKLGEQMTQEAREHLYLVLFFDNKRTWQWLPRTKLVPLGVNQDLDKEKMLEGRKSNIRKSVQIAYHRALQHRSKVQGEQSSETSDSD
Description: Binding affinity to BRPF1 (unknown origin) assessed as change in melting temperature at 10 uM by differential scanning fluorimetry based thermal shift assay

[1] = biological target: T2, Bromodomain and PHD finger-containing protein 3 (Homo sapiens, UniProt Q9ULD4); test: Inhibition of human BRPF3 (588 to 701 residues) expressed in Escherichia coli BL21 after 1 hr by BROMOscan assay
T2 sequence (Q9ULD4 whole entry): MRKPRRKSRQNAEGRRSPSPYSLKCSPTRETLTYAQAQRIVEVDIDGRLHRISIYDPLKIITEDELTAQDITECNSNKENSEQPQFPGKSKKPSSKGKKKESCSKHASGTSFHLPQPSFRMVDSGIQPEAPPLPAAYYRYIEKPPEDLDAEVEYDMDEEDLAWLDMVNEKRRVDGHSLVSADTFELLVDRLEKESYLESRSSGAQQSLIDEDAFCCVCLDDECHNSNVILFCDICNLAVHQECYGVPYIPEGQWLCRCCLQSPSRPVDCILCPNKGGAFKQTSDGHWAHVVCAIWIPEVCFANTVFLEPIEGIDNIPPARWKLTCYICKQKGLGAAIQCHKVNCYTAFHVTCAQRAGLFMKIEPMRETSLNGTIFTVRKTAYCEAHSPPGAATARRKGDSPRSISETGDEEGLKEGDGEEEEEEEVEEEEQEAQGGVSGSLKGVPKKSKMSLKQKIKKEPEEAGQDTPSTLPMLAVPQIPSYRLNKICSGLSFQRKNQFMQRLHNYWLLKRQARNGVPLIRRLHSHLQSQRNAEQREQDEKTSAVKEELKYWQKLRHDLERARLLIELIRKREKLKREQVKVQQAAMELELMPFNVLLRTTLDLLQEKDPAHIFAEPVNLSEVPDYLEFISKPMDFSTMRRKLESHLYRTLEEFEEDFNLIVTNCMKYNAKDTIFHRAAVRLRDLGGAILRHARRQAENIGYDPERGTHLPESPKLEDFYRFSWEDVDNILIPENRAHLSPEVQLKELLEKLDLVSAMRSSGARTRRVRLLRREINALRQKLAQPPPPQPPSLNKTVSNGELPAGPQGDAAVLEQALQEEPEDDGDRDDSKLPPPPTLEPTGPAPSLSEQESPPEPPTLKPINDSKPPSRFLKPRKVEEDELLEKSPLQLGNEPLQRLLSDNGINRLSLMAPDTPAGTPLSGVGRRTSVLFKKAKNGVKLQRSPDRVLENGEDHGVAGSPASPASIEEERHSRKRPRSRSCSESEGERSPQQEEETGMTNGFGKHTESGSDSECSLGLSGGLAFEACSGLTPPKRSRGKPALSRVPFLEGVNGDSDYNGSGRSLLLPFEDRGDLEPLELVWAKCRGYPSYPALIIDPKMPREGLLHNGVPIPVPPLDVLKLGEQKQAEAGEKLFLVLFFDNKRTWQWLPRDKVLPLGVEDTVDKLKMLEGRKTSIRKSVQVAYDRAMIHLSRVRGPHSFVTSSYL

[2] = Inhibition of cell proliferation of human RERF-LC-Sq1 cells after 72 hrs by MTS assay; assay type: functional; settings: RERF-LC-Sq1, 72 h
Liver = test: Metabolic stability in human liver microsomes by UPLC-MS/MS analysis; assay type: ADME, microsome

Row | SMILES | ΔTm (Peregrin (Homo sapiens)) [°C] | IC50 [1] [µM] | GI50 [2] [µM] | Stability (Liver)
1 | Cn1c(=O)ccc2cc(S(=O)(=O)Nc3ccccc3)ccc21 | 3.5 | > 100 |  | 
2 | COc1cc(C#N)ccc1S(=O)(=O)Nc1ccc2c(c1)cc(C(C)C)c(=O)n2C |  | 4.6 |  | 
3 | COc1cc(C#N)ccc1S(=O)(=O)Nc1ccc2c(c1)cc(C)c(=O)n2C | 12.3 |  | 16.6 | Stable
